Data as given in US20240246942A1, “KINASE INHIBITORS FOR THE TREATMENT OF NEURODEGENERATIVE DISEASES” (priority 2020, published 2024).

Columns and labels:
Assay in all cases: biochemical
[1] = molecular target: T1, panel of 374 wild-type kinases (Homo sapiens, UniProt Q13976); conditions: read-out: % Enzyme Activity (relative to DMSO controls), kinase PKG1a
T1 construct: purchased Reaction Biology Corporation
T1 sequence (Q13976 1-671): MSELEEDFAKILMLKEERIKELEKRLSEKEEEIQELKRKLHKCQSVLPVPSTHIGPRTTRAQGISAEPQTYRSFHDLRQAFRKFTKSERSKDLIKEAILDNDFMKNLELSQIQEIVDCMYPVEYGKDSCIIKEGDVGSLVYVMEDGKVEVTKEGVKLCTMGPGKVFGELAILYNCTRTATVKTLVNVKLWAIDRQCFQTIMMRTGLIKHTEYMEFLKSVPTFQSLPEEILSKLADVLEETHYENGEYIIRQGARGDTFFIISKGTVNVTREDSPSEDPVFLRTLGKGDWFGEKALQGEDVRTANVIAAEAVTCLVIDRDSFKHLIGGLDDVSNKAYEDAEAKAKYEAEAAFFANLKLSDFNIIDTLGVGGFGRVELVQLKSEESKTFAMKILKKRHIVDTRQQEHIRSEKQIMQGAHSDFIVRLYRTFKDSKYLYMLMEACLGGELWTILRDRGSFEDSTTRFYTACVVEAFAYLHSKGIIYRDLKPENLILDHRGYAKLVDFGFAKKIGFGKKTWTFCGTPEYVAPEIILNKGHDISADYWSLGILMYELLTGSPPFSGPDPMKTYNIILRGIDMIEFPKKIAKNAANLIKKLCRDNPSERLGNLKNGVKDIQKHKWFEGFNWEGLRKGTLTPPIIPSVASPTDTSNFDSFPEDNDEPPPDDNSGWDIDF

[2] = molecular target: T2, panel of 374 wild-type kinases (Homo sapiens, UniProt P22455); conditions: for remaining activity at 5 µM: read-out: % Enzyme Activity (relative to DMSO controls), FGFR4
T2 construct: purchased Reaction Biology Corporation

[3] = molecular target: T3, panel of 374 wild-type kinases (Homo sapiens, UniProt P12931); conditions: read-out: % Enzyme Activity (relative to DMSO controls), c-Src
T3 construct: purchased Reaction Biology Corporation

[4] = molecular target: T4, panel of 374 wild-type kinases (Homo sapiens, UniProt Q9UPE1); conditions: read-out: % Enzyme Activity (relative to DMSO controls), MSSK1/STK23
T4 construct: purchased Reaction Biology Corporation

[5] = molecular target: T5, panel of 374 wild-type kinases (Homo sapiens, UniProt O75914); conditions: read-out: % Enzyme Activity (relative to DMSO controls), kinase PAK3
T5 construct: purchased Reaction Biology Corporation

[6] = molecular target: T6, panel of 374 wild-type kinases (Homo sapiens, UniProt P42679); conditions: read-out: % Enzyme Activity (relative to DMSO controls), CTK/MATK
T6 construct: purchased Reaction Biology Corporation
T6 sequence (P42679 1-507): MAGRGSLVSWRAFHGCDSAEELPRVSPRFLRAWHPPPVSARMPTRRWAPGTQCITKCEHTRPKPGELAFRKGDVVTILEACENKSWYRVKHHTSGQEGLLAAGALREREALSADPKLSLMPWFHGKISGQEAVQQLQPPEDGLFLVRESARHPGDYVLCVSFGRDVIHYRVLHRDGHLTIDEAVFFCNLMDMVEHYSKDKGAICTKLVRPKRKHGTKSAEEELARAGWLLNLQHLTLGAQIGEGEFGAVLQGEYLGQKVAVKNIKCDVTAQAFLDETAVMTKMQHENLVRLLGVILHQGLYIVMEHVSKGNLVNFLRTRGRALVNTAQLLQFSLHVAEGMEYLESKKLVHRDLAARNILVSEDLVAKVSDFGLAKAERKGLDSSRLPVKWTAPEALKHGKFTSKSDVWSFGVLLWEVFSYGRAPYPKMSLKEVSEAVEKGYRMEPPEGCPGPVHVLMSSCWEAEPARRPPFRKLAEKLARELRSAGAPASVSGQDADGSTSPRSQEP

[7] = molecular target: T7, panel of 374 wild-type kinases (Homo sapiens, UniProt O14757); conditions: read-out: % Enzyme Activity (relative to DMSO controls), CHK1
T7 construct: purchased Reaction Biology Corporation
T7 sequence (O14757 1-476): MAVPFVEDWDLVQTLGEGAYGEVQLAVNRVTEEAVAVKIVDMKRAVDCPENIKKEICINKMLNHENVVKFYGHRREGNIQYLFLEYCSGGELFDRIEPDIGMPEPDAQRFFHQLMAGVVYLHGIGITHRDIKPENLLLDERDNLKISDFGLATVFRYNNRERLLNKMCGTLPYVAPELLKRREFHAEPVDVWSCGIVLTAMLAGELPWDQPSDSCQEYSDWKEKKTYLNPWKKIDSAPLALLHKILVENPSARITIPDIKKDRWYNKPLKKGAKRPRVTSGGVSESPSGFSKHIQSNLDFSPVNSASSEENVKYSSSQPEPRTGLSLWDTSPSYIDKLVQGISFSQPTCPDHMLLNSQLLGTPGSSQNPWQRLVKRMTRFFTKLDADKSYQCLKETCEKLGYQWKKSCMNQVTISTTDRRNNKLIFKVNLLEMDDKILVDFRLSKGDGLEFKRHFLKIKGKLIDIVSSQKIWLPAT

T2 sequence (P22455 22-802): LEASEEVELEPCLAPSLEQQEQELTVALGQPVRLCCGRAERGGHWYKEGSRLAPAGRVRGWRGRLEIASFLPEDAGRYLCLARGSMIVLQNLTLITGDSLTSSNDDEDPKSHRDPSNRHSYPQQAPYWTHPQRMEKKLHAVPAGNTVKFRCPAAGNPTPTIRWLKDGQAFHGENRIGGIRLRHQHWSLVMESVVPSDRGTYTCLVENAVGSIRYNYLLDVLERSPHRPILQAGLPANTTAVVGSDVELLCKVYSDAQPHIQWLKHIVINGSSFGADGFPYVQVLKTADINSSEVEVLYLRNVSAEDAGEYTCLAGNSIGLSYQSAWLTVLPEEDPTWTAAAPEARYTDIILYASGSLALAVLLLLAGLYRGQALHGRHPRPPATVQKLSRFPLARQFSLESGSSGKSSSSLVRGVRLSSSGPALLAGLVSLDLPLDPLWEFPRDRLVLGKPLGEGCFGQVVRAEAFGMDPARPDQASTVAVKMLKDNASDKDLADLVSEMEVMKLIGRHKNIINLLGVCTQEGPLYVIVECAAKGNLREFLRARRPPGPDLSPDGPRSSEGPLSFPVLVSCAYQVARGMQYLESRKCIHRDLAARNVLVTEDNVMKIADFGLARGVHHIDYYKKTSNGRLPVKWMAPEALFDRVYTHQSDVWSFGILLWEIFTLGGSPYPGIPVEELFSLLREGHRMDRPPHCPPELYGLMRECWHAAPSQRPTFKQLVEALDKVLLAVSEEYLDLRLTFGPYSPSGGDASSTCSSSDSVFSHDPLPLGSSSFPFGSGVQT
T3 sequence (P12931 whole entry): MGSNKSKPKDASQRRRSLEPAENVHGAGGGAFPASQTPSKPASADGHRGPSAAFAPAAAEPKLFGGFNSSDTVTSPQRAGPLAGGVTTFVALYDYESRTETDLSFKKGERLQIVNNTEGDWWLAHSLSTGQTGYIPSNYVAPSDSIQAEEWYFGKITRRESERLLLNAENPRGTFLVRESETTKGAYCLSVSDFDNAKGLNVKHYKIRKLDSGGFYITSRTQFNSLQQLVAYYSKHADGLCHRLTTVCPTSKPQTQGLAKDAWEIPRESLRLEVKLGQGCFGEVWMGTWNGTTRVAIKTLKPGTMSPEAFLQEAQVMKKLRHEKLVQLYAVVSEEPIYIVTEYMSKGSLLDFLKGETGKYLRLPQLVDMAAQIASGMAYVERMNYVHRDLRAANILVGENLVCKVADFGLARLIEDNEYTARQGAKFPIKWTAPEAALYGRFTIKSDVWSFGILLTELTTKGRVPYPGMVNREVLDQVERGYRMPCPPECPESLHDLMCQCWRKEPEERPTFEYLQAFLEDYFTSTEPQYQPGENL
T5 sequence (O75914 whole entry): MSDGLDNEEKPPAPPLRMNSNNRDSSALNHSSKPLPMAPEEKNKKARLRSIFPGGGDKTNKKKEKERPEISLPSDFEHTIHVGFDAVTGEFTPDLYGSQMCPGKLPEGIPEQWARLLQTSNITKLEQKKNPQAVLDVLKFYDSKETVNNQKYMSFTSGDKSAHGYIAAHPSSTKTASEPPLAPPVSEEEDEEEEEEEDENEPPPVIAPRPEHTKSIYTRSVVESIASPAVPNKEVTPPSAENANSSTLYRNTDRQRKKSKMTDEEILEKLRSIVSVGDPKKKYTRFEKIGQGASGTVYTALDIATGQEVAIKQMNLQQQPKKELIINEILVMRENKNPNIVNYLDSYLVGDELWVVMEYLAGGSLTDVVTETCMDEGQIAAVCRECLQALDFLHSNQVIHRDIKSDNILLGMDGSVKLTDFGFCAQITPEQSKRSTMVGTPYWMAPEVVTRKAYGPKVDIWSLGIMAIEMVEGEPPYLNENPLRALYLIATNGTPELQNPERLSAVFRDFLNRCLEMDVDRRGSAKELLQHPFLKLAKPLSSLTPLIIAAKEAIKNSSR
T4 sequence (Q9UPE1 whole entry): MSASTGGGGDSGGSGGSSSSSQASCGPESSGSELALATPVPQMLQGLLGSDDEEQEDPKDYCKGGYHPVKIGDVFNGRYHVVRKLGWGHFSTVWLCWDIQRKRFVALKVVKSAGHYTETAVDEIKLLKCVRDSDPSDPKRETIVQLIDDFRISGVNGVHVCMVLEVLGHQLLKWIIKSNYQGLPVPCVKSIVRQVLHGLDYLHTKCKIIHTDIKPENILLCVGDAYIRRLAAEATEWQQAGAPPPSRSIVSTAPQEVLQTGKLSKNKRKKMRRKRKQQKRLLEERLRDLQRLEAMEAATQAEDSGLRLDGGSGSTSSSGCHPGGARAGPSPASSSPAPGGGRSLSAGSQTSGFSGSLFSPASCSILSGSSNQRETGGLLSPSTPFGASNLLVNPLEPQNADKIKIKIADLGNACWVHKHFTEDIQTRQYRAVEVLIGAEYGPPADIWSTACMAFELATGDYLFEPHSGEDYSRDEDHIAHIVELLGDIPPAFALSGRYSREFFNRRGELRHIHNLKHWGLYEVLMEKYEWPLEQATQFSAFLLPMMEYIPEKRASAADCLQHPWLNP

Compound: O=C(Nc1cnn(-c2csc(C(=O)NC3COC3)c2)c1)Nc1ccccc1Cl [Compound 17, 4-(4-(3-(2-chlorophenyl)ureido)-1H-pyrazol-1-yl)-N-(oxetan-3-yl)thiophene-2-carboxamide]
- remaining activity at 5 µM [1]: 110%
- remaining activity at 5 µM [2]: 88.2%
- remaining activity at 5 µM [3]: 91.1%
- remaining activity at 5 µM [4]: 91.9%
- remaining activity at 5 µM [5]: 97.4%
- remaining activity at 5 µM [6]: 99.7%
- remaining activity at 5 µM [7]: 98.7%

Compound: O=C(Nc1cnn(-c2csc(C(=O)NC3COC3)c2)c1)Nc1c(F)cccc1Cl [Compound 25, 4-(4-(3-(2-chloro-6-fluorophenyl)ureido)-1H-pyrazol-1-yl)-N-(oxetan-3-yl)thiophene-2-carboxamide]
- remaining activity at 5 µM [1]: 93.2%
- remaining activity at 5 µM [2]: 99.6%
- remaining activity at 5 µM [3]: 98.4%
- remaining activity at 5 µM [4]: 89.8%
- remaining activity at 5 µM [5]: 64.2%
- remaining activity at 5 µM [6]: 100%
- remaining activity at 5 µM [7]: 141%

Compound: Cc1sc(C(=O)NC2COC2)cc1-n1cc(NC(=O)Nc2c(F)cccc2Cl)cn1 [Compound 27, 4-(4-(3-(2-chloro-6-fluorophenyl)ureido)-1H-pyrazol-1-yl)-5-methyl-N-(oxetan-3-yl)thiophene-2-carboxamide]
- remaining activity at 10 µM ([1]; 10 uM): 120%
- remaining activity at 10 µM ([2]; FGFR4, 10 uM, read-out: % Enzyme Activity (relative to DMSO controls)): 96.8%
- remaining activity at 10 µM ([3]; 10 uM): 96.6%
- remaining activity at 10 µM ([4]; 10 uM): 98.9%
- remaining activity at 10 µM ([5]; 10 uM): 114%
- remaining activity at 10 µM ([6]; 10 uM): 97.8%
- remaining activity at 10 µM ([7]; 10 uM): 118%
